Target: Coagulation factor XI (Homo sapiens, UniProt P03951)
Assay: In Vitro Assay: The effectiveness of compounds of the present invention as inhibitors of the coagulation Factors XIa, VIIa, IXa, Xa, XIIa, plasma kallikrein or thrombin, can be determined using a relevant purified serine protease, respectively, and an appropriate synthetic substrate. The rate of hydrolysis of the chromogenic or fluorogenic substrate by the relevant serine protease was measured both in the absence and presence of compounds of the present invention. […] A decrease in the rate of absorbance or fluorescence change in the presence of inhibitor is indicative of enzyme inhibition. Factor XIa determinations were made in 50 mM HEPES buffer at pH 7.4.

Chain of Coagulation factor XI (P03951 19-387 limits assumed): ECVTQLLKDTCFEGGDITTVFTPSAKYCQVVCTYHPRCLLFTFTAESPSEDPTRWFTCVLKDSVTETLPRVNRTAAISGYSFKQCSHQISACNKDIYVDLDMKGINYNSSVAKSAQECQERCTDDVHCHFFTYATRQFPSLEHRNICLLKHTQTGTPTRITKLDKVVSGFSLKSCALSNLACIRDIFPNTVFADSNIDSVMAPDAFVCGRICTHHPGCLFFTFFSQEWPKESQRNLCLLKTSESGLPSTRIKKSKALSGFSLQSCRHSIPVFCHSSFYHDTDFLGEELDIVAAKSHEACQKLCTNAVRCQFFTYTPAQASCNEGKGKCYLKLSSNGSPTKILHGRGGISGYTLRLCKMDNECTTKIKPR
Chain of Coagulation factor XI (P03951 388-625 limits assumed): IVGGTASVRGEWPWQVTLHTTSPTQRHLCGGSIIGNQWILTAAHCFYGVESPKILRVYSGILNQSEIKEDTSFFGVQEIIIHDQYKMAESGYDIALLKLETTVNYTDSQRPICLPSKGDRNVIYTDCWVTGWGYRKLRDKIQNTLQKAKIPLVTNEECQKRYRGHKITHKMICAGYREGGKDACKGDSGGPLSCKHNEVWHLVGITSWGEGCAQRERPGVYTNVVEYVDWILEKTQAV

Ki: 8.12 µM
SMILES: COC(=O)Nc1ccc2c(c1)CNC(=O)c1ccc(cc1)C[C@H](NC(=O)/C=C/c1cc(Cl)ccc1-n1cnnn1)c1nc-2c(Cl)[nH]1

Source: ChEMBL document CHEMBL3638865, “Macrocycles as factor XIa inhibitors” (2014)
